Source: the supplement of paper PMC11208160

Test: recombinant barcode read abundance after kanamycin selection (control-corrected) (log10(CPM+1)); higher = more efficient recombination; sequences stand for … in AGTGCAGAGAAAATCGGCCAGTTTTCTCTGCCTGCAGTCCGCATGCCGT…AGATTTATGCAGCGGACTGCCTTTCTCCCAAAGTGATAAACCGGACAGTATCATGGACCGGTTTTCCCGGTAATCCGTATTTGCAAGGTTGGTTTCACT; site = the 11-nt target
In short: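 Pooled oligos, each joining a target to an IS621 bridge RNA target-binding loop, were cloned and co-electroporated with a donor plasmid into E. coli. Selective plates carried chloramphenicol/ampicillin/kanamycin and 0.1 mM IPTG, while chloramphenicol/ampicillin LB agar served as control, with two replicates of each. Recombination efficiency rests on averaged, control-corrected counts per million of barcodes at recombinant junctions, shown as log10(CPM+1).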
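Note: IS621 recombinase and bridge RNA in Escherichia coli cells.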

Sequence	recombinant barcode read abundance (log10)
GCTTGGACTTGGGTTCTAACCTGTTGCCT (site GCTTTGACTAG)	0.0492
GCTTGTTCTTGGGTTCTAACCTGTTGCCT (site ACTTGTTCTAG)	0.0443
GCTTGTTCTTGGGTTCTAACCTGTTGCCT (site CCTTGTTCTAG)	0.501
GCTTGTTCTTGGGTTCTAACCTGTTGCCT (site GCTTGTTCTAG)	0.233
GCTTGTTCTTGGGTTCTAACCTGTTGCCT (site TCTTGTTCTAG)	0.11
GCTTTACCTTGGGTTCTAACCTGTTGCCT (site ACTTTACCTAG)	0.0836
GCTTTACCTTGGGTTCTAACCTGTTGCCT (site CCTTTACCTAG)	0.019
GCTTTACCTTGGGTTCTAACCTGTTGCCT (site GCTTTACCTAG)	0.456
GCTTTACCTTGGGTTCTAACCTGTTGCCT (site TCTTTACCTAG)	0.0534
GCTTTGCCTTGGGTTCTAACCTGTTGCCT (site ACTTTCCCTAG)	0.0475
GCTTTGCCTTGGGTTCTAACCTGTTGCCT (site GCTTTGCCTAG)	0.409
GGAACGTCTTGGGTTCTAACCTGTTGCTT (site GGAACCTCTAA)	0.0353
GGAACGTCTTGGGTTCTAACCTGTTGCTT (site GGAACGTCTAA)	1.06
GGAACTACTTGGGTTCTAACCTGTTGCAC (site GGAACTACTGT)	0.838
GGAACTACTTGGGTTCTAACCTGTTGCAC (site TTGCTAGCTCC)	0.114
GGAAGCCCTTGGGTTCTAACCTGTTGCTA (site AACTAAGCTAG)	0.0242
GGAAGCCCTTGGGTTCTAACCTGTTGCTA (site GGAAGCCCTTA)	0.694
GGAAGTTCTTGGGTTCTAACCTGTTGCCT (site GAAAGTTCTAG)	0.0496
GGAAGTTCTTGGGTTCTAACCTGTTGCCT (site GCAAGTTCTAG)	0.0862
GGAAGTTCTTGGGTTCTAACCTGTTGCCT (site GGAAGTTCTAG)	0.732

Sequence	recombinant barcode read abundance (log10)
GGAAGTTCTTGGGTTCTAACCTGTTGCCT (site GTAAGTTCTAG)	0.754
GGAATACCTTGGGTTCTAACCTGTTGCCT (site GGAATACCTAG)	1.36
GGAATACCTTGGGTTCTAACCTGTTGCCT (site GGAATCCCTAG)	0.157
GGAATACCTTGGGTTCTAACCTGTTGCCT (site GGAATGCCTAG)	0.0994
GGAATACCTTGGGTTCTAACCTGTTGCCT (site GGAATTCCTAG)	0.0368
GGAATGCCTTGGGTTCTAACCTGTTGCCT (site GGAATACCTAG)	0.79
GGAATGCCTTGGGTTCTAACCTGTTGCCT (site GGAATCCCTAG)	0.0574
GGAATGCCTTGGGTTCTAACCTGTTGCCT (site GGAATGCCTAG)	0.975
GGAATGCCTTGGGTTCTAACCTGTTGCCT (site GGAATTCCTAG)	0.0966
GGAATGTCTTGGGTTCTAACCTGTTGCCT (site GAAATGTCTAG)	0.344
GGAATGTCTTGGGTTCTAACCTGTTGCCT (site GCAATGTCTAG)	0.0847
GGAATGTCTTGGGTTCTAACCTGTTGCCT (site GGAATGTCTAG)	2.09
GGAATGTCTTGGGTTCTAACCTGTTGCCT (site GTAATGTCTAG)	0.0368
GGAATTCCTTGGGTTCTAACCTGTTGCCT (site GGAATACCTAG)	0.129
GGAATTCCTTGGGTTCTAACCTGTTGCCT (site GGAATCCCTAG)	0
GGAATTCCTTGGGTTCTAACCTGTTGCCT (site GGAATGCCTAG)	0.0669
GGAATTCCTTGGGTTCTAACCTGTTGCCT (site GGAATTCCTAG)	0.0376
GGACAATCTTGGGTTCTAACCTGTTGCCT (site GGACAATCTAG)	1.53
GGACAATCTTGGGTTCTAACCTGTTGCCT (site GGACCATCTAG)	0.174
GGACAATCTTGGGTTCTAACCTGTTGCCT (site GGACGATCTAG)	0.376

Sequence	recombinant barcode read abundance (log10)
GGACAATCTTGGGTTCTAACCTGTTGCCT (site GGACTATCTAG)	0.0608
GGACATGCTTGGGTTCTAACCTGTTGCGT (site CGACATACTAC)	0.219
GGACATGCTTGGGTTCTAACCTGTTGCGT (site GGACATGCTAC)	2.7
GGACCGCCTTGGGTTCTAACCTGTTGCCT (site CGATCGCCTAG)	0.129
GGACCGCCTTGGGTTCTAACCTGTTGCCT (site GGACCGCCTAG)	0.626
GGACGAGCTTGGGTTCTAACCTGTTGCTG (site ATCTATACTAG)	0.0905
GGACGAGCTTGGGTTCTAACCTGTTGCTG (site GGACGAGCTCA)	2.46
GGACGGACTTGGGTTCTAACCTGTTGCCA (site GGACGGACTTG)	1.68
GGACGGACTTGGGTTCTAACCTGTTGCCA (site GGTCGGACTTG)	0.417
GGACTATCTTGGGTTCTAACCTGTTGCCT (site GGACAATCTAG)	0.104
GGACTATCTTGGGTTCTAACCTGTTGCCT (site GGACCATCTAG)	0.297
GGACTATCTTGGGTTCTAACCTGTTGCCT (site GGACGATCTAG)	0.011
GGACTATCTTGGGTTCTAACCTGTTGCCT (site GGACTATCTAG)	1.18
GGACTCACTTGGGTTCTAACCTGTTGCCT (site GGACTCACTAG)	1.77
GGACTCACTTGGGTTCTAACCTGTTGCCT (site GGATTCTCTAG)	0.15
GGAGAACCTTGGGTTCTAACCTGTTGCCT (site AGAGAACCTAG)	1.85
GGAGAACCTTGGGTTCTAACCTGTTGCCT (site CGAGAACCTAG)	0.492
GGAGAACCTTGGGTTCTAACCTGTTGCCT (site GGAGAACCTAG)	2.48
GGAGAACCTTGGGTTCTAACCTGTTGCCT (site TGAGAACCTAG)	1.56
